Laboratory results reported in patent publication US8003676B2, “1,3,4-oxadiazole derivatives as DGAT1 inhibitors” (AstraZeneca AB, priority 2006, dated 2011).

Experiments:
[1] = biological target: T1, human DGAT1 (Homo sapiens, UniProt O75907); test: Human Enzyme Assay (DGAT1 inhibition, 14C oleoyl CoA, triolein formation); assay type: biochemical; conditions: human DGAT1 expressed in sf9 insect cell membranes
T1 construct: made in house; host or cells: Sf9 insect cells (baculovirus), membrane fraction
T1 sequence (O75907 1-488): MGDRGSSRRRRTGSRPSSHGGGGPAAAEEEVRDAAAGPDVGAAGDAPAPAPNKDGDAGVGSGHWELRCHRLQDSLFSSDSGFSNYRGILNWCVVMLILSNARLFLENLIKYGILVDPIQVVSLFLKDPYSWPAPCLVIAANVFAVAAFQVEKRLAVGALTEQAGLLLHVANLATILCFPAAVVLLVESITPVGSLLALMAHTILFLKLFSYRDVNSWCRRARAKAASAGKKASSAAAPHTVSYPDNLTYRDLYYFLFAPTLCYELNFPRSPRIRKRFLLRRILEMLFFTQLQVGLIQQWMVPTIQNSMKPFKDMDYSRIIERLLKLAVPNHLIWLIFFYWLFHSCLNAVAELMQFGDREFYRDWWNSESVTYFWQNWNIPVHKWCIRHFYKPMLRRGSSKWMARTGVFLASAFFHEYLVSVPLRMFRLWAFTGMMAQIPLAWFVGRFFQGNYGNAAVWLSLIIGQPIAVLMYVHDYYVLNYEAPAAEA
Protocol: The in vitro assay to identify DGAT1 inhibitors uses human DGAT1 expressed in insect cell membranes as the enzyme source (Proc. Natl. Acad. Sci. 1998, 95, 13018-13023). Briefly, sf9 cells were infected with recombinant baculovirus containing human DGAT1 coding sequences and harvested after 48 h. Cells were lysed by sonication and membranes isolated by centrifuging at 28000 rpm for 1 h at 4° C. on a 41% sucrose gradient. The membrane fraction at the interphase was collected, washed, and stored in liquid nitrogen.
DGAT1 activity was assayed by a modification of the method described by Coleman (Methods in Enzymology 1992, 209, 98-102). Compound at 1-10 μM was incubated with 0.4 μg membrane protein, 5 mM MgCl2, and 100 μM1,2 dioleoyl-sn-glycerol in a total assay volume of 200 μl in plastic tubes. The reaction was started by adding ^14C oleoyl coenzyme A (30 μM final concentration) and incubated at room temperature for 30 minutes. The reaction was stopped by adding 1.5 mL 2-propanol:heptane:water (80:20:2). Radioactive triolein product was separated into the organic phase by adding 1 mL heptane and 0.5 mL 0.1 M carbonate buffer pH 9.5. DGAT1 activity was quantified by counting aliquots of the upper heptane layer by liquid scintillography.

[2] = test system: ACAT; test: ACAT enzyme assay (esterification of cholesterol); selectivity DGAT over ACAT; assay type: biochemical; conditions: DGAT vs ACAT enzyme assays
Protocol: • Mouse adipocyte 3T3 cells were cultured to confluency in 6 well plates in new born calf serum containing media. Differentiation of the cells was induced by incubating in medium containing 10% foetal calf serum, 1 μg/mL insulin, 0.25 μM dexamethasone and 0.5 mM isobutylmethyl xanthine. After 48 h the cells were maintained in medium containing 10% foetal calf serum and 1 μg/mL insulin for a further 4-6 days. For the experiment, the medium was changed to serum-free medium and the cells pre-incubated with compound solubilised in DMSO (final concentration 0.1%) for 30 minutes. De novo lipogenesis was measured by the addition of 0.25 mM sodium acetate plus 1 μCi/mL ^14C-sodium acetate to each well for a further 2 h (J. Biol. Chem., 1976, 251, 6462-6464). […] Incorporation of radiolabel into the triglyceride fraction was analysed using a Radiomatic Flo-one Detector (Packard) connected to the HPLC machine. […] De novo lipogenesis was measured by the addition of 50 μM sodium acetate plus 3 μCi/mL ^14C-sodium acetate to each well for a further 3 h (J. Biol. Chem., 1976, 251, 6462-6464). […] Incorporation of radiolabel into the triglyceride fraction was analysed using a Radiomatic Flo-one Detector (Packard) connected to the HPLC machine. • 3) The ability of compounds to inhibit ACAT can be measured using a modification of the enzyme assay described in Billheimer (1985) Methods in Enzymology, 111, 286-293. […]

With `O=C(Nc1ccc(O[C@H]2CC[C@@H](C(=O)O)CC2)cc1F)c1nnc(Nc2cc(F)c(F)cc2F)o1` [Example 1, cis-4-(3-Fluoro-4-{[5-(2,4,5-trifluoro-phenylamino)-[1,3,4]oxadiazole-2-carbonyl]-amino}-phenoxy)-cyclohexanecarboxylic acid] the IC50 [1] was 4 nM and the “selectivity to inhibit DGAT over inhibition of ACAT (ratio of IC50 values in the DGAT and ACAT enzyme assays)” value [2] was 70 fold.
